The structures appear in SMILES notation.

The target of this test is human Autotaxin protein (Homo sapiens, UniProt Q13822). Kind of test: Evaluation of inhibitory activity against human Autotaxin protein (18:1 LysoPC substrate, choline assay kit, absorbance 570 nm). Type of test: biochemical. The following applies: compound at 500 nM, 2 hours at 37° C. As for the experimental part: The solution of each synthesized compound (80 uM, 100% dimethyl sulfoxide) was sequentially diluted 5 times with dimethyl sulfoxide to prepare 6 concentrations. Each concentration of compound was diluted two-fold with 1× test buffer (50 mM Tris-Cl (pH 8.0), 5 mM KCl, 1 mM CaCl2), 1 mM MgCl2, 140 mM NaCl, deionized water, 1 mg/mL BSA), and 1 uL (1.25% dimethyl sulfoxide) of this diluted mixture was dispensed into each well of a 96 well clear round bottom plate. 9 uL of 1× test buffer were added to each well, followed by the addition of 20 uL of 240 nM human Autotaxin protein (buffer: 50 mM Tris-HCl, pH 8.0, with 150 mM sodium chloride and 20% glycerol). 10 uL of sonicated 360 uM 18:1 LysoPC (diluted with 1× test buffer) were added to each well. The reaction was performed for 2 hours in a shaking incubator at 37° C., and a secondary reaction mixture (choline assay kit, KA1662) (65 uL of 1× test buffer: 1 uL of choline oxidase: 1 uL of dye probe) was prepared. 60 uL of the secondary reaction mixture were added to the reaction plate and reacted on a shaker for 30 minutes. Using a SpectraMax iD3 microplate reader, the absorbance was measured at a wavelength of 570 nm. The percentage of inhibition activity (% inhibition) was calculated by the Formula: (1−Absorbancetestgroup/Absorbancecontrol group)×100.
In general, inhibition refers to how much of the control response was suppressed. High values mean a strong effect, low ones a weak effect. For the compound `Fc1cc2c(cc1F)CC(Nc1ncc(-c3nnc(N4CCC(n5cnnn5)CC4)o3)cn1)C2` [Example 28, 5-(5-(4-(1H-Tetrazol-1-yl)piperidin-1-yl)-1,3,4-oxadiazol-2-yl)-N-(5,6-difluoro-2,3-dihydro-1H-inden-2-yl)pyrimidin-2-amine], the inhibition at 0.5 µM amounted to 52.5%.

As to `Cc1nn[nH]c1C1CCN(c2nnc(-c3cnc(NC4Cc5cc(F)c(F)cc5C4)nc3)o2)CC1` [Example 29, N-(5,6-difluoro-2,3-dihydro-1H-inden-2-yl)-5-(5-(4-(4-methyl-1H-1,2,3-triazol-5-yl)piperidin-1-yl)-1,3,4-oxadiazol-2-yl)pyrimidin-2-amine], the inhibition at 0.5 µM was found to be 90.8%.

Regarding `O=C(/C=C/c1cnc(NC2Cc3cc(F)c(F)cc3C2)nc1)N1CCC(c2cnn[nH]2)CC1` [Example 30, (E)-1-(4-(1H-1,2,3-triazol-5-yl)piperidin-1-yl)-3-(2-((5,6-difluoro-2,3-dihydro-1H-inden-2-yl)amino)pyrimidin-5-yl)prop-2-en-1-one], the inhibition at 0.5 µM is 97.8%.

In the case of `c1ccc(Cn2nncc2C2CCN(c3cnc(-c4cnc(NC5Cc6ccccc6C5)nc4)o3)CC2)cc1` [Example 31, 5-(5-(4-(1-Benzyl-1H-1,2,3-triazol-5-yl)piperidin-1-yl)oxazol-2-yl)-N-(2,3-dihydro-1H-inden-2-yl)pyrimidin-2-amine], the inhibition at 0.5 µM was 8.1%.

In the case of `CN(c1ncc(-c2nnc(N3CCC(c4cnn[nH]4)CC3)o2)cn1)C1Cc2cc(F)c(F)cc2C1` [Example 32, 5-(5-(4-(1H-1,2,3-triazol-5-yl)piperidin-1-yl)-1,3,4-oxadiazol-2-yl)-N-(5,6-difluoro-2,3-dihydro-1H-inden-2-yl)-N-methylpyrimidin-2-amine], at 0.5 µM the inhibition was 34.3%.

`Cn1nncc1C1CCN(c2nnc(-c3cnc(NC4Cc5cc(F)c(F)cc5C4)nc3)o2)CC1` [Example 33, N-(5,6-difluoro-2,3-dihydro-1H-inden-2-yl)-5-(5-(4-(1-methyl-1H-1,2,3-triazol-5-yl)piperidin-1-yl)-1,3,4-oxadiazol-2-yl)pyrimidin-2-amine]: at 0.5 µM the inhibition was 78.4%.

In turn, `Cn1cc(C2CCN(c3nnc(-c4cnc(NC5Cc6cc(F)c(F)cc6C5)nc4)o3)CC2)nn1` [Example 34, N-(5,6-difluoro-2,3-dihydro-1H-inden-2-yl)-5-(5-(4-(1-methyl-1H-1,2,3-triazol-4-yl)piperidin-1-yl)-1,3,4-oxadiazol-2-yl)pyrimidin-2-amine] registered an inhibition at 0.5 µM of 17.3%.

In turn, `c1ccc2c(c1)CC(Nc1ncc(C3CC(N4CCC(c5cnn[nH]5)CC4)=NO3)cn1)C2` (stereo not drawn) [Example 35, N-indan-2-yl-5-[3-[4-(1H-triazol-5-yl)-1-piperidyl]-4,5-dihydroisoxazol-5-yl]pyrimidin-2-amine] returned an inhibition at 0.5 µM of 96%.

`c1ccc2c(c1)CC(Nc1ncc(-c3cc(N4CCC(c5cnn[nH]5)CC4)no3)cn1)C2` [Example 36, 5-(3-(4-(1H-1,2,3-triazol-5-yl)piperidin-1-yl)isoxazol-5-yl)-N-(2,3-dihydro-1H-inden-2-yl)pyrimidin-2-amine] gave an inhibition at 0.5 µM of 53.4%.

In the case of `Fc1cc2c(cc1F)CC(Nc1ncc(C3CC(N4CCC(c5cnn[nH]5)CC4)=NO3)cn1)C2` (stereo not drawn) [Example 37, N-(5,6-difluoroindan-2-yl)-5-[3-[4-(1H-triazol-5-yl)-1-piperidyl]-4,5-dihydroisoxazol-5-yl]pyrimidin-2-amine], the “inhibition (%) at 500 nM” value amounted to 93.2%.

On to `Fc1cc2c(cc1F)CC(Nc1ncc(-c3cc(N4CCC(c5cnn[nH]5)CC4)no3)cn1)C2` [Example 38, 5-(3-(4-(1H-1,2,3-triazol-5-yl)piperidin-1-yl)isoxazol-5-yl)-N-(5,6-difluoro-2,3-dihydro-1H-inden-2-yl)pyrimidin-2-amine], for which the inhibition at 0.5 µM was determined as 53.2%.

Take `Fc1ccc2c(c1)CC(Nc1ncc(C3CC(N4CCC(c5cnn[nH]5)CC4)=NO3)cn1)C2` (stereo not drawn) [Example 39, 5-(3-(4-(1H-1,2,3-triazol-5-yl)piperidin-1-yl)-4,5-dihydroisoxazol-5-yl)-N-(5-fluoro-2,3-dihydro-1H-inden-2-yl)pyrimidin-2-amine]: at 0.5 µM the inhibition was 97.2%.

In turn, `Fc1ccc2c(c1)CC(Nc1ncc(-c3cc(N4CCC(c5cnn[nH]5)CC4)no3)cn1)C2` (stereo not drawn) [Example 40, 5-(3-(4-(1H-1,2,3-triazol-5-yl)piperidin-1-yl)isoxazol-5-yl)-N-(5-fluoro-2,3-dihydro-1H-inden-2-yl)pyrimidin-2-amine] displayed an inhibition at 0.5 µM of 68.5%.

Consider `Fc1cc(F)cc(CNc2ncc(C3CC(N4CCC(c5cnn[nH]5)CC4)=NO3)cn2)c1` (stereo not drawn) [Example 41, N-[(3,5-difluorophenyl)methyl]-5-[3-[4-(1H-triazol-5-yl)-1-piperidyl]-4,5-dihydroisoxazol-5-yl]pyrimidin-2-amine], for which the “inhibition (%) at 500 nM” value was found to be 40.6%.

Consider `c1ccc(CNc2ncc(C3CC(N4CCC(c5cnn[nH]5)CC4)=NO3)cn2)cc1` (stereo not drawn) [Example 42, N-benzyl-5-[3-[4-(1H-triazol-5-yl)-1-piperidyl]-4,5-dihydroisoxazol-5-yl]pyrimidin-2-amine], for which the “inhibition (%) at 500 nM” value was 8.6%.

With `Fc1ccc(CNc2ncc(C3CC(N4CCC(c5cnn[nH]5)CC4)=NO3)cn2)cc1F` (stereo not drawn) [Example 43, N-[(3,4-difluorophenyl)methyl]-5-[3-[4-(1H-triazol-5-yl)-1-piperidyl]-4,5-dihydroisoxazol-5-yl]pyrimidin-2-amine], the “inhibition (%) at 500 nM” value amounted to 4.6%.

`Clc1cc(Cl)cc(CNc2ncc(C3CC(N4CCC(c5cnn[nH]5)CC4)=NO3)cn2)c1` (stereo not drawn) [Example 44, 5-(3-(4-(1H-1,2,3-triazol-5-yl)piperidin-1-yl)-4,5-dihydroisoxazol-5-yl)-N-(3,5-dichlorobenzyl)pyrimidin-2-amine] displayed an inhibition at 0.5 µM of 71.3%.

`c1cc2c(cc1CNc1ncc(C3CC(N4CCC(c5cnn[nH]5)CC4)=NO3)cn1)OCO2` (stereo not drawn) [Example 45, 5-(3-(4-(1H-1,2,3-triazol-5-yl)piperidin-1-yl)-4,5-dihydroisoxazol-5-yl)-N-(benzo[d][1,3]dioxol-5-ylmethyl)pyrimidin-2-amine] had an inhibition at 0.5 µM of 1.6%.

With `c1cc2c(cc1CNc1ncc(-c3cc(N4CCC(c5cnn[nH]5)CC4)no3)cn1)OCO2` [Example 46, N-(1,3-benzodioxol-5-ylmethyl)-5-[3-[4-(1H-triazol-5-yl)-1-piperidyl]isoxazol-5-yl]pyrimidin-2-amine], the “inhibition (%) at 500 nM” value came to 1%.

`Clc1cc(Cl)cc(CCNc2ncc(C3CC(N4CCC(c5cnn[nH]5)CC4)=NO3)cn2)c1` (stereo not drawn) [Example 47, 5-(3-(4-(1H-1,2,3-triazol-5-yl)piperidin-1-yl)-4,5-dihydroisoxazol-5-yl)-N-(3,5-dichlorophenethyl)pyrimidin-2-amine] yielded an inhibition at 0.5 µM of 29.2%.

Compound `CS(=O)(=O)c1cccc(CNc2ncc(C3CC(N4CCC(c5cnn[nH]5)CC4)=NO3)cn2)c1` (stereo not drawn) [Example 48, 5-(3-(4-(1H-1,2,3-triazol-5-yl)piperidin-1-yl)-4,5-dihydroisoxazol-5-yl)-N-(3-(methylsulfonyl)benzyl)pyrimidin-2-amine] showed an inhibition at 0.5 µM of 3.4%.

Turning to `CS(=O)(=O)c1ccc(CNc2ncc(C3CC(N4CCC(c5cnn[nH]5)CC4)=NO3)cn2)cc1` (stereo not drawn) [Example 49, 5-(3-(4-(1H-1,2,3-triazol-5-yl)piperidin-1-yl)-4,5-dihydroisoxazol-5-yl)-N-(4-(methylsulfonyl)benzyl)pyrimidin-2-amine], testing at 0.5 µM gave an inhibition of 1.2%.

The compound `c1ccc2c(c1)CC(Nc1ncc(C3CC(N4CCC(c5nnn[nH]5)CC4)=NO3)cn1)C2` (stereo not drawn) [Example 50, 5-(3-(4-(1H-tetrazol-5-yl)piperidin-1-yl)-4,5-dihydroisoxazol-5-yl)-N-(2,3-dihydro-1H-inden-2-yl)pyrimidin-2-amine] yielded an inhibition at 0.5 µM of 7%.

On to `FC(F)c1nnc(C2CCN(C3=NOC(c4cnc(NC5Cc6ccccc6C5)nc4)C3)CC2)o1` (stereo not drawn) [Example 51, 5-(3-(4-(5-(Difluoromethyl)-1,3,4-oxadiazol-2-yl)piperidin-1-yl)-4,5-dihydroisoxazol-5-yl)-N-(2,3-dihydro-1H-inden-2-yl)pyrimidin-2-amine], for which the inhibition at 0.5 µM came out at 13.2%.

`Fc1cc2c(cc1F)CC(Nc1ncc(C3CC(N4CCC(c5nnn[nH]5)CC4)=NO3)cn1)C2` (stereo not drawn) [Example 52, 5-(3-(4-(1H-tetrazol-5-yl)piperidin-1-yl)-4,5-dihydroisoxazol-5-yl)-N-(5,6-difluoro-2,3-dihydro-1H-inden-2-yl)pyrimidin-2-amine] yielded an inhibition at 0.5 µM of 4.8%.

For the compound `Fc1ccc2c(c1)CC(Nc1ncc(C3CC(N4CCC(c5nnc(C(F)(F)F)o5)CC4)=NO3)cn1)C2` (stereo not drawn) [Example 53, N-(5-fluoro-2,3-dihydro-1H-inden-2-yl)-5-(3-(4-(5-(trifluoromethyl)-1,3,4-oxadiazol-2-yl)piperidin-1-yl)-4,5-dihydroisoxazol-5-yl)pyrimidin-2-amine], the inhibition at 0.5 µM was 10.2%.

`CC1CC(c2cnn[nH]2)CCN1c1nnc(-c2cnc(NC3Cc4cc(F)c(F)cc4C3)nc2)o1` (stereo not drawn) [Example 54, N-(5,6-difluoro-2,3-dihydro-1H-inden-2-yl)-5-(5-(2-methyl-4-(1H-1,2,3-triazol-5-yl)piperidin-1-yl)-1,3,4-oxadiazol-2-yl)pyrimidin-2-amine] had an inhibition at 0.5 µM of 95.3%.
